Source: patent US20240025862A1, “SUBSTITUTED N-PHENYLURACILS AND SALTS THEREOF, AND USE THEREOF AS HERBICIDAL ACTIVE SUBSTANCES” (Bayer Aktiengesellschaft, priority 2020, published 2024)

Experiments:
Format in all cases: in vivo
[1] = test system: Echinochloa crus-galli (ECHCG); test: Post-emergence herbicidal action, greenhouse pot test (also comparative test C); details: for Post-emergence action at 1.25 g/ha against ECHCG in %: rated visually after about 3 weeks vs untreated controls, 100% = plants have died
Summary of the method: (§1)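 Visual rating against untreated controls, about 3 weeks after spraying, from 0% (like control) to 100% (plants dead). Weeds were treated at the one-leaf stage, 2–3 weeks after sowing in sandy loam, with aqueous WP/EC spray containing 0.5% additive at 600 l/ha. Doses were ≤20 g/ha, or ≤5 g/ha for comparative test C.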

[2] = test system: Setaria viridis (SETVI); test: as above; details: for Post-emergence action against SETVI: 20 g/ha
Summary of the method: as §1

[3] = test system: Matricaria inodora (MATIN); test: as above
Summary of the method: as §1

[4] = test system: Alopecurus myosuroides (ALOMY); test: as above; details: rated visually after about 3 weeks vs untreated controls, 100% = plants have died
Summary of the method: as §1

[5] = test system: Zea mays (ZEAMX); test: Post-emergence crop plant compatibility, greenhouse pot test; details: 1.25 g/ha, vs untreated controls
Summary of the method: (§2)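 Crop plants grown in sandy loam in the greenhouse were sprayed post-emergence at the one-leaf stage, 2–3 weeks after sowing, with WP or EC formulations as aqueous suspension/emulsion plus 0.5% additive at 600 l/ha. Damage was rated visually about 3 weeks later versus untreated controls (0% = like control, 100% = plants dead).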

[6] = test system: Triticum aestivum (TRZAS); test: as above; details: vs untreated controls
Summary of the method: as §2

[7] = test system: Oryza sativa (ORYSA); test: Post-emergence crop plant compatibility, greenhouse pot test (also comparative test C); details: for Post-emergence action against ORYSA (crop plant compatibility): vs untreated controls
Summary of the method: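 Rice and other crops sprayed post-emergence at one-leaf stage (2–3 weeks after sowing) with WP or EC formulations plus 0.5% additive at 600 l/ha water. Visual rating about 3 weeks later versus untreated controls (100% = dead, 0% = like control); suffixes a–c denote different doses.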

[8] = test system: Polygonum convolvulus (POLCO); test: Post-emergence herbicidal action, greenhouse pot test
Summary of the method: (§3)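 Greenhouse-grown weeds in sandy loam were sprayed post-emergence at the one-leaf stage, 2–3 weeks after sowing. Compounds were formulated as WP or EC in water with 0.5% additive at 600 l/ha, at rates of 20 g/ha or less. Visual rating after about 3 weeks used a scale from 0% (like untreated control) to 100% (plants dead).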

[9] = test system: Viola tricolor (VIOTR); test: as above
Summary of the method: as §3

[10] = test system: Amaranthus retroflexus (AMARE); test: as above; details: rated visually after about 3 weeks vs untreated controls, 100% = plants have died
Summary of the method: as §3

[11] = test system: Pharbitis purpurea (PHBPU); test: as above
Summary of the method: as §3

[12] = test system: Avena fatua (AVEFA); test: as above; details: rated visually after about 3 weeks vs untreated controls, 100% = plants have died
Summary of the method: as §3

[13] = test system: Veronica persica (VERPE); test: as above
Summary of the method: as §3

[14] = test system: Abutilon theophrasti (ABUTH); test: as above; details: rated visually after about 3 weeks vs untreated controls, 100% = plants have died
Summary of the method: as §3

[15] = test system: Lolium rigidum (LOLRI); test: as above; details: dosage 20 g/ha
Summary of the method: as §3

Row | Post-emergence action against ORYSA (crop plant compatibility) ([7]; 1.25 g/ha) [%] | SMILES | Post-emergence action against ECHCG in % ([1]; dosage 5 g/ha) [%] | Post-emergence action against ECHCG in % ([1]; dosage 20 g/ha) [%] | Post-emergence action against SETVI [2] [%] | Post-emergence action against SETVI in % ([2]; dosage 1.25 g/ha) [%] | Post-emergence action against SETVI in % ([2]; dosage 5 g/ha) [%] | Post-emergence action against MATIN in % ([3]; dosage 20 g/ha) [%] | Post-emergence action at 5 g/ha against ALOMY in % [4] [%] | Post-emergence action at 20 g/ha against ALOMY in % [4] [%] | Post-emergence action against POLCO in % ([8]; dosage 20 g/ha) [%] | Post-emergence action against VIOTR ([9]; 1.25 g/ha) [%] | Post-emergence action against VIOTR ([9]; 5 g/ha) [%] | Post-emergence action against VIOTR ([9]; 20 g/ha) [%] | Post-emergence action at 1.25 g/ha against AMARE in % [10] [%] | Post-emergence action at 5 g/ha against AMARE in % [10] [%] | Post-emergence action at 20 g/ha against AMARE in % [10] [%] | Post-emergence action against PHBPU in % ([11]; dosage 1.25 g/ha) [%] | Post-emergence action against PHBPU in % ([11]; dosage 5 g/ha) [%] | Post-emergence action against PHBPU in % ([11]; dosage 20 g/ha) [%] | Post-emergence action at 20 g/ha against AVEFA in % [12] [%] | other results
1 | 0 | Cn1c(C(F)(F)F)cc(=O)n(-c2cc(Oc3ccccc3OCC(=O)OCc3ccncc3)c(Cl)cc2F)c1=O [I.7-278] | 100 | 100 | 100 | 100 | 100 | 100 | 90 | 100 | 100 | 90 | 100 | 100 | 100 | 100 | 100 | 100 | 100 | 100 | 80 | Post-emergence action at 1.25 g/ha against ECHCG in % [1]: 80%; Post-emergence action against MATIN in % ([3]; dosage 5 g/ha): 80%; Post-emergence action against ZEAMX (crop plant compatibility) [5]: 0%; Post-emergence action against POLCO in % ([8]; dosage 5 g/ha): 80%; Post-emergence action against VERPE ([13]; 1.25 g/ha): 100%; Post-emergence action against VERPE ([13]; 5 g/ha): 100%; Post-emergence action against VERPE ([13]; 20 g/ha): 100%; Post-emergence action at 1.25 g/ha against ABUTH in % [14]: 100%; Post-emergence action at 5 g/ha against ABUTH in % [14]: 100%; Post-emergence action at 20 g/ha against ABUTH in % [14]: 100%; Post-emergence action against LOLRI in % [15]: 80%
2 | 0 | CCOCCOC(=O)COc1ccccc1Oc1cc(-n2c(=O)cc(C(F)(F)F)n(C)c2=O)c(F)cc1Br [I.8-2] | 100 | 100 | 100 | 100 | 100 | 100 | 100 | 100 | 100 | 100 | 100 | 100 | 100 | 100 | 100 | 100 | 100 | 100 | 100 | Post-emergence action against MATIN in % ([3]; dosage 1.25 g/ha): 100%; Post-emergence action against MATIN in % ([3]; dosage 5 g/ha): 100%; Post-emergence action at 1.25 g/ha against ALOMY in % [4]: 80%; Post-emergence action against ZEAMX (crop plant compatibility) [5]: 20%; Post-emergence action against ORYSA (crop plant compatibility) ([7]; 5 g/ha): 0%; Post-emergence action against POLCO in % ([8]; dosage 5 g/ha): 100%; Post-emergence action against VERPE ([13]; 1.25 g/ha): 100%; Post-emergence action against VERPE ([13]; 5 g/ha): 100%; Post-emergence action against VERPE ([13]; 20 g/ha): 100%; Post-emergence action at 1.25 g/ha against ABUTH in % [14]: 100%; Post-emergence action at 5 g/ha against ABUTH in % [14]: 100%; Post-emergence action at 20 g/ha against ABUTH in % [14]: 100%; Post-emergence action against LOLRI in % [15]: 90%

Second part, the molecule before the results:

Row | SMILES | Post-emergence action against ORYSA (crop plant compatibility) ([7]; 1.25 g/ha) [%] | Post-emergence action against ECHCG in % ([1]; dosage 5 g/ha) [%] | Post-emergence action against ECHCG in % ([1]; dosage 20 g/ha) [%] | Post-emergence action against SETVI [2] [%] | Post-emergence action against SETVI in % ([2]; dosage 1.25 g/ha) [%] | Post-emergence action against SETVI in % ([2]; dosage 5 g/ha) [%] | Post-emergence action against MATIN in % ([3]; dosage 20 g/ha) [%] | Post-emergence action at 5 g/ha against ALOMY in % [4] [%] | Post-emergence action at 20 g/ha against ALOMY in % [4] [%] | Post-emergence action against POLCO in % ([8]; dosage 20 g/ha) [%] | Post-emergence action against VIOTR ([9]; 1.25 g/ha) [%] | Post-emergence action against VIOTR ([9]; 5 g/ha) [%] | Post-emergence action against VIOTR ([9]; 20 g/ha) [%] | Post-emergence action at 1.25 g/ha against AMARE in % [10] [%] | Post-emergence action at 5 g/ha against AMARE in % [10] [%] | Post-emergence action at 20 g/ha against AMARE in % [10] [%] | Post-emergence action against PHBPU in % ([11]; dosage 1.25 g/ha) [%] | Post-emergence action against PHBPU in % ([11]; dosage 5 g/ha) [%] | Post-emergence action against PHBPU in % ([11]; dosage 20 g/ha) [%] | Post-emergence action at 20 g/ha against AVEFA in % [12] [%] | other results
3 | CCOCCOC(=O)COc1ccccc1Oc1cc(-n2c(=O)cc(C(F)(F)F)n(C)c2=O)c(F)cc1Cl [I.7-2] | 0 | 100 | 100 | 100 | 100 | 100 | 100 | 80 | 100 | 100 | 100 | 100 | 100 | 100 | 100 | 100 | 100 | 100 | 100 | 90 | Post-emergence action against MATIN in % ([3]; dosage 1.25 g/ha): 80%; Post-emergence action against MATIN in % ([3]; dosage 5 g/ha): 80%; Post-emergence action against ZEAMX (crop plant compatibility) [5]: 0%; Post-emergence action against TRZAS (crop plant compatibility) ([6]; 1.25 g/ha): 20%; Post-emergence action against TRZAS (crop plant compatibility) ([6]; 5 g/ha): 20%; Post-emergence action against VERPE ([13]; 1.25 g/ha): 80%; Post-emergence action against VERPE ([13]; 5 g/ha): 100%; Post-emergence action against VERPE ([13]; 20 g/ha): 100%; Post-emergence action at 1.25 g/ha against ABUTH in % [14]: 100%; Post-emergence action at 5 g/ha against ABUTH in % [14]: 100%; Post-emergence action at 20 g/ha against ABUTH in % [14]: 100%; Post-emergence action against LOLRI in % [15]: 80%
4 | Cn1c(C(F)(F)F)cc(=O)n(-c2cc(Oc3ccccc3OCC(=O)OCc3cccnn3)c(Br)cc2F)c1=O [I.8-291] | 0 | 100 | 100 | 100 | 100 | 100 | 100 | 90 | 100 | 100 | 100 | 100 | 100 | 100 | 100 | 100 | 100 | 100 | 100 | 90 | Post-emergence action at 1.25 g/ha against ECHCG in % [1]: 100%; Post-emergence action at 1.25 g/ha against ALOMY in % [4]: 80%; Post-emergence action against TRZAS (crop plant compatibility) ([6]; 1.25 g/ha): 10%; Post-emergence action against TRZAS (crop plant compatibility) ([6]; 5 g/ha): 20%; Post-emergence action against ORYSA (crop plant compatibility) ([7]; 5 g/ha): 20%; Post-emergence action against POLCO in % ([8]; dosage 5 g/ha): 100%; Post-emergence action against VERPE ([13]; 1.25 g/ha): 100%; Post-emergence action against VERPE ([13]; 5 g/ha): 100%; Post-emergence action against VERPE ([13]; 20 g/ha): 100%; Post-emergence action at 1.25 g/ha against ABUTH in % [14]: 100%; Post-emergence action at 5 g/ha against ABUTH in % [14]: 100%; Post-emergence action at 20 g/ha against ABUTH in % [14]: 100%; Post-emergence action against LOLRI in % [15]: 80%
5 | Cn1c(C(F)(F)F)cc(=O)n(-c2cc(Oc3ccccc3OCC(=O)OCc3cccnn3)c(C#N)cc2F)c1=O [I.9-291] | 0 | 90 | 100 | 100 | 100 | 100 | 100 | 90 | 100 | 100 | 100 | 100 | 100 | 100 | 100 | 100 | 100 | 100 | 100 | 80 | Post-emergence action against MATIN in % ([3]; dosage 5 g/ha): 80%; Post-emergence action at 1.25 g/ha against ALOMY in % [4]: 80%; Post-emergence action against TRZAS (crop plant compatibility) ([6]; 1.25 g/ha): 20%; Post-emergence action against TRZAS (crop plant compatibility) ([6]; 5 g/ha): 20%; Post-emergence action against ORYSA (crop plant compatibility) ([7]; 5 g/ha): 0%; Post-emergence action against ORYSA in % ([7]; 20 g/ha, crop plant compatibility): 20%; Post-emergence action against POLCO in % ([8]; dosage 1.25 g/ha): 80%; Post-emergence action against POLCO in % ([8]; dosage 5 g/ha): 90%; Post-emergence action at 5 g/ha against AVEFA in % ([12]; 5 g/ha): 80%; Post-emergence action against VERPE ([13]; 1.25 g/ha): 100%; Post-emergence action against VERPE ([13]; 5 g/ha): 100%; Post-emergence action against VERPE ([13]; 20 g/ha): 100%; Post-emergence action at 1.25 g/ha against ABUTH in % [14]: 100%; Post-emergence action at 5 g/ha against ABUTH in % [14]: 100%; Post-emergence action at 20 g/ha against ABUTH in % [14]: 100%; Post-emergence action against LOLRI in % [15]: 90%
